Test results published in ChEMBL document CHEMBL5543174, “A Nonbactericidal Anionic Antimicrobial Peptide Provides Prophylactic and Therapeutic Efficacies against Bacterial Infections in Mice by Immunomodulatory-Antithrombotic Duality” (J Med Chem, 2024).
The source made the active and inactive calls. No cut-off for these calls is given here.

Tests used:
Candida albicans [1] = experiment: Antimicrobial activity against Candida albicans ATCC 2002 assessed as reduction in metabolic activity at 2 times MIC incubated for 1 to 4 hrs by CCK-8 assay; type: functional, organism-based; conditions: time 1-4 hrs
Staphylococcus aureus [2] = experiment: Antimicrobial activity against Methicillin-resistant Staphylococcus aureus assessed as reduction in microbial colony forming unit at 2 times MIC incubated for 1 to 4 hrs by time-kill kinetics based analysis; type: functional, organism-based; conditions: time 1-4 hrs
Staphylococcus aureus [3] = experiment: Antimicrobial activity against Methicillin-resistant Staphylococcus aureus assessed as reduction in metabolic activity at 2 times MIC incubated for 1 to 4 hrs by CCK-8 assay; type: functional, organism-based; conditions: time 1-4 hrs
Candida albicans [4] = experiment: Antimicrobial activity against Candida albicans ATCC 2002 assessed as reduction in microbial colony forming unit at 2 times MIC incubated for 1 to 4 hrs by time-kill kinetics based analysis; type: functional, organism-based; conditions: time 1-4 hrs
Escherichia coli [5] = experiment: Antimicrobial activity against Carbapenem-resistant Escherichia coli assessed as reduction in microbial colony forming unit at 2 times MIC incubated for 1 to 4 hrs by time-kill kinetics based analysis; type: functional, organism-based; conditions: time 1-4 hrs
Escherichia coli [6] = experiment: Antimicrobial activity against Carbapenem-resistant Escherichia coli assessed as reduction in metabolic activity at 2 times MIC incubated for 1 to 4 hrs by CCK-8 assay; type: functional, organism-based; conditions: time 1-4 hrs
Staphylococcus aureus [7] = experiment: Antimicrobial activity against Staphylococcus aureus ATCC 25923 assessed as reduction in metabolic activity at 2 times MIC incubated for 1 to 4 hrs by CCK-8 assay; type: functional, organism-based; conditions: time 1-4 hrs
Escherichia coli [8] = experiment: Antimicrobial activity against Escherichia coli ATCC 25922 assessed as reduction in microbial colony forming unit at 2 times MIC incubated for 1 to 4 hrs by time-kill kinetics based analysis; type: functional, organism-based; conditions: time 1-4 hrs
Staphylococcus aureus [9] = experiment: Antimicrobial activity against Staphylococcus aureus ATCC 25923 assessed as reduction in microbial colony forming unit at 2 times MIC incubated for 1 to 4 hrs by time-kill kinetics based analysis; type: functional, organism-based; conditions: time 1-4 hrs
Escherichia coli [10] = experiment: Antimicrobial activity against Escherichia coli ATCC 25922 assessed as reduction in metabolic activity at 2 times MIC incubated for 1 to 4 hrs by CCK-8 assay; type: functional, organism-based; conditions: time 1-4 hrs
[11] = system: Peritoneal macrophage cell; experiment: Induction of phagocytosis in mouse Peritoneal macrophage cultured with Methicillin-resistant Staphylococcus aureus assessed as number of surviving engulfed bacteria at 50 ug/ml incubated for 1.5 hrs followed by bacterial exposure for 1 hr by plate counting method; type: functional; conditions: dose 50 µg/ml; time 2.5 hrs
Mus musculus = experiment: Antithrombotic activity in FeCl3-induced carotid arterial thrombosis C57BL/6 mouse model assessed as increase in blood flow by measuring time to occlusion at 10 mg/kg,SC administration observed for 30 mins by laser speckle perfusion imaging analysis; type: functional; conditions: 0.5 h
[12] = system: Peritoneal macrophage cell; experiment: Induction of chemotaxis in mouse Peritoneal macrophage assessed as upregulation of CXCL1 production at 100 ug/ml preincubated with PTX followed by compound addition by ELISA; type: functional; conditions: dose 100 µg/ml
Platelet [13] = experiment: Anti-platelet aggregation activity in human Platelet rich plasma assessed as inhibition of PMA-induced aggregation at 100 ug/ml preincubated with compound for 5 mins followed by PMA addition by platelet aggregometry relative to control; type: functional; parameters: scale not given: the % may be the effect or the level left; conditions: dose 100 µg/ml
Platelet [14] = experiment: Anti-platelet aggregation activity in human Platelet rich plasma assessed as inhibition of ADP-induced aggregation at 100 ug/ml preincubated with compound for 5 mins followed by ADP addition by platelet aggregometry relative to control; type: functional; parameters: scale not given: the % may be the effect or the level left; conditions: dose 100 µg/ml
[15] = system: Peritoneal macrophage cell; experiment: Induction of phagocytosis in mouse Peritoneal macrophage cultured with Carbapenem-resistant Escherichia coli assessed as number of surviving engulfed bacteria at 100 ug/ml incubated for 1.5 hrs followed by bacterial exposure for 1 hr by plate counting method; type: functional; conditions: dose 100 µg/ml; time 2.5 hrs
Peritoneal macrophage [16] = experiment: Induction of chemotaxis in mouse Peritoneal macrophage assessed as upregulation of MCP-1 production at 100 ug/ml preincubated with PTX followed by compound addition by ELISA; type: functional; conditions: dose 100 µg/ml
[17] = system: Peritoneal macrophage cell; experiment: Induction of phagocytosis in mouse Peritoneal macrophage cultured with Methicillin-resistant Staphylococcus aureus assessed as number of surviving engulfed bacteria at 25 ug/ml incubated for 1.5 hrs followed by bacterial exposure for 1 hr by plate counting method; type: functional; conditions: dose 25 µg/ml; time 2.5 hrs
Peritoneal macrophage [18] = experiment: Induction of phagocytosis in mouse Peritoneal macrophage cultured with Carbapenem-resistant Escherichia coli assessed as number of surviving engulfed bacteria at 25 ug/ml incubated for 1.5 hrs followed by bacterial exposure for 1 hr by plate counting method; type: functional; conditions: dose 25 µg/ml; time 2.5 hrs
[19] = system: Peritoneal macrophage cell; experiment: Induction of phagocytosis in mouse Peritoneal macrophage cultured with Methicillin-resistant Staphylococcus aureus assessed as number of surviving engulfed bacteria at 100 ug/ml incubated for 1.5 hrs followed by bacterial exposure for 1 hr by plate counting method; type: functional; conditions: dose 100 µg/ml; time 2.5 hrs
Platelet [20] = experiment: Anti-platelet aggregation activity in human Platelet rich plasma assessed as inhibition of collagen-induced aggregation at 100 ug/ml preincubated with compound for 5 mins followed by collagen addition by platelet aggregometry relative to control; type: functional; parameters: scale not given: the % may be the effect or the level left; conditions: dose 100 µg/ml
[21] = system: Peritoneal macrophage cell; experiment: Induction of phagocytosis in mouse Peritoneal macrophage cultured with Carbapenem-resistant Escherichia coli assessed as number of surviving engulfed bacteria at 50 ug/ml incubated for 1.5 hrs followed by bacterial exposure for 1 hr by plate counting method; type: functional; conditions: dose 50 µg/ml; time 2.5 hrs
Peritoneal macrophage [22] = experiment: Induction of chemotaxis in mouse Peritoneal macrophage assessed as upregulation of CXCL2 production at 100 ug/ml preincubated with PTX followed by compound addition by ELISA; type: functional; conditions: dose 100 µg/ml
Neutrophil = experiment: Cytotoxicity against mouse bone marrow derived neutrophil at <= 200 ug/ml incubated for 24 hrs by CCK-8 assay; type: toxicity, cell-based; conditions: dose < 200 µg/ml
Peritoneal macrophage [23] = experiment: Cytotoxicity against mouse Peritoneal macrophage at <= 200 ug/ml incubated for 24 hrs by CCK-8 assay; type: toxicity, cell-based; conditions: dose < 200 µg/ml
[24] = Acute toxicity in C57BL/6 mouse assessed as change in ALT level in serum at 30 mg/kg,ip administration measured after 24 hrs; type: organism-based; conditions: in vivo
Erythrocyte [25] = experiment: Hemolytic activity in rabbit erythrocytes at 25 to 200 ug/ml incubated for 30 mins by absorbance based analysis; type: toxicity, cell-based, Oryctolagus cuniculus; conditions: 0.5 h, dose 25-200 µg/ml
[26] = Acute toxicity in C57BL/6 mouse assessed as change in creatinine level in serum at 10 mg/kg,ip administration measured after 24 hrs; type: organism-based; conditions: in vivo
[27] = Acute toxicity in C57BL/6 mouse assessed as change in creatinine level in serum at 30 mg/kg,ip administration measured after 24 hrs; type: organism-based; conditions: in vivo
[28] = Acute toxicity in C57BL/6 mouse assessed as change in ALT level in serum at 10 mg/kg,ip administration measured after 24 hrs; type: organism-based; conditions: in vivo
Erythrocyte [29] = experiment: Hemolytic activity in mouse erythrocytes at 25 to 200 ug/ml incubated for 30 mins by absorbance based analysis; type: toxicity, cell-based; conditions: 0.5 h, dose 25-200 µg/ml

Question: Which Activity (Candida albicans [1]) does the source give for `C[C@@H](O)[C@H]1C(=O)N2C(C(=O)O)=C(S[C@@H]3CN[C@H](C(=O)N(C)C)C3)[C@H](C)[C@H]12` here?
Answer: Active

Question: What about the Activity (Staphylococcus aureus [2]) of the same compound?
Answer: Active

Question: And the Activity (Staphylococcus aureus [3])?
Answer: Active

Question: And the Activity (Candida albicans [4])?
Answer: Active

Question: And the Activity (Escherichia coli [5])?
Answer: Active

Question: What about the Activity (Escherichia coli [6]) of the same compound?
Answer: Active

Question: What about the Activity (Staphylococcus aureus [7]) of the same compound?
Answer: Active

Question: What about the Activity (Escherichia coli [8]) of the same compound?
Answer: Active

Question: What about the Activity (Staphylococcus aureus [9]) of the same compound?
Answer: Active

Question: What about the Activity (Escherichia coli [10]) of the same compound?
Answer: Active

Question: What does the source list for `CC[C@H](C)[C@H](NC(=O)[C@@H]1CSSC[C@H](NC(=O)[C@H](CCC(=O)O)NC(=O)[C@@H](NC(=O)[C@H](CCCCN)NC(=O)[C@H](Cc2c[nH]cn2)NC(=O)[C@@H](NC(=O)[C@H](CCCCN)NC(=O)[C@H](CCC(=O)O)NC(=O)[C@H](C)NC(=O)[C@H](CCC(=O)O)NC(=O)[C@H](CCC(=O)O)NC(=O)[C@H](CCC(=O)O)NC(=O)[C@H](C)N)[C@@H](C)O)[C@@H](C)O)C(=O)N[C@@H](CC(C)C)C(=O)N[C@@H](CCC(=O)O)C(=O)N1)C(=O)N[C@@H](Cc1ccccc1)C(=O)N[C@H](C(=O)N[C@@H](CC(C)C)C(=O)N[C@@H](CC(C)C)C(=O)N1CCC[C@H]1C(=O)N1CCC[C@H]1C(=O)N[C@@H](C)C(=O)O)[C@@H](C)O` [listing 1 of 2 here]?
Answer: Activity [11]: 532; Time (Mus musculus): 28.5 min; Activity [12]: 56.8%; Activity (Platelet [13]): 78.01%; Activity (Platelet [14]): 54.2%; Activity [15]: 234; Activity (Peritoneal macrophage [16]): 52.8%; Activity [17]: 793; Activity (Peritoneal macrophage [18]): 279; Activity [19]: 244; Activity (Platelet [20]): 57.72%; Activity [21]: 245; Activity (Peritoneal macrophage [22]): 63.2%

Question: For `CC[C@H](C)[C@H](NC(=O)[C@@H]1CSSC[C@H](NC(=O)[C@H](CCC(=O)O)NC(=O)[C@@H](NC(=O)[C@H](CCCCN)NC(=O)[C@H](Cc2c[nH]cn2)NC(=O)[C@@H](NC(=O)[C@H](CCCCN)NC(=O)[C@H](CCC(=O)O)NC(=O)[C@H](C)NC(=O)[C@H](CCC(=O)O)NC(=O)[C@H](CCC(=O)O)NC(=O)[C@H](CCC(=O)O)NC(=O)[C@H](C)N)[C@@H](C)O)[C@@H](C)O)C(=O)N[C@@H](CC(C)C)C(=O)N[C@@H](CCC(=O)O)C(=O)N1)C(=O)N[C@@H](Cc1ccccc1)C(=O)N[C@H](C(=O)N[C@@H](CC(C)C)C(=O)N[C@@H](CC(C)C)C(=O)N1CCC[C@H]1C(=O)N1CCC[C@H]1C(=O)N[C@@H](C)C(=O)O)[C@@H](C)O` [listing 2 of 2 here], which Activity (Neutrophil) is on record?
Answer: Non-Toxic

Question: What about the Activity (Peritoneal macrophage [23]) of the same compound?
Answer: Non-Toxic

Question: And the Activity [24]?
Answer: Non-Toxic

Question: What about the Activity (Erythrocyte [25]) of the same compound?
Answer: Non-Toxic

Question: What about the Activity [26] of the same compound?
Answer: Non-Toxic

Question: What about the Activity [27] of the same compound?
Answer: Non-Toxic

Question: And the Activity [28]?
Answer: Non-Toxic

Question: What about the Activity (Erythrocyte [29]) of the same compound?
Answer: Non-Toxic

Question: With `CC[C@H](C)[C@H](NC(=O)[C@H](CCCCN)NC(=O)[C@H](CCC(=O)O)NC(=O)[C@H](CCCCN)NC(=O)[C@H](CO)NC(=O)[C@H](CCCCN)NC(=O)[C@H](CCCNC(=N)N)NC(=O)[C@H](Cc1ccccc1)NC(=O)[C@H](Cc1ccccc1)NC(=O)[C@H](CC(=O)O)NC(=O)CNC(=O)[C@H](CC(C)C)NC(=O)[C@@H](N)CC(C)C)C(=O)NCC(=O)N[C@@H](CCCCN)C(=O)N[C@@H](CCC(=O)O)C(=O)N[C@@H](Cc1ccccc1)C(=O)N[C@@H](CCCCN)C(=O)N[C@@H](CCCNC(=N)N)C(=O)N[C@H](C(=O)N[C@H](C(=O)N[C@@H](CCC(N)=O)C(=O)N[C@@H](CCCNC(=N)N)C(=O)N[C@H](C(=O)N[C@@H](CCCCN)C(=O)N[C@@H](CC(=O)O)C(=O)N[C@@H](Cc1ccccc1)C(=O)N[C@@H](CC(C)C)C(=O)N[C@@H](CCCNC(=N)N)C(=O)N[C@@H](CC(N)=O)C(=O)N[C@@H](CC(C)C)C(=O)N[C@H](C(=O)N1CCC[C@H]1C(=O)N[C@@H](CCCNC(=N)N)C(=O)N[C@H](C(=O)N[C@@H](CCC(=O)O)C(=O)N[C@@H](CO)C(=O)O)[C@@H](C)O)C(C)C)[C@@H](C)CC)C(C)C)[C@@H](C)CC` as the compound, how does the Activity (Candida albicans [1]) read?
Answer: Active

Question: And the Activity (Staphylococcus aureus [2])?
Answer: Active

Question: And the Activity (Staphylococcus aureus [3])?
Answer: Active

Question: What about the Activity (Candida albicans [4]) of the same compound?
Answer: Active

Question: And the Activity (Escherichia coli [5])?
Answer: Active

Question: And the Activity (Escherichia coli [6])?
Answer: Active

Question: And the Activity (Staphylococcus aureus [7])?
Answer: Active

Question: What about the Activity (Escherichia coli [8]) of the same compound?
Answer: Active

Question: What about the Activity (Staphylococcus aureus [9]) of the same compound?
Answer: Active

Question: And the Activity (Escherichia coli [10])?
Answer: Active
